# Legend:
# Format in all cases: functional
# [1] = system: Cryptococcus neoformans; assay: Antifungal activity against Cryptococcus neoformans
# [2] = system: Aspergillus fumigatus; assay: Antifungal activity against Aspergillus fumigatus
# [3] = system: Kluyveromyces marxianus; assay: Antifungal activity against Candida kefyr
# [4] = system: Candida parapsilosis; assay: Antifungal activity against Candida parapsilosis
# [5] = system: Trichophyton rubrum; assay: Antifungal activity against Trichophyton rubrum
# [6] = system: Candida tropicalis; assay: Antifungal activity against Candida tropicalis
# [7] = system: Candida albicans; assay: Antifungal activity against Candida albicans
# [8] = system: Candida albicans; assay: Antifungal activity against Candida albicans after 24 hrs by NCCLS protocol based method
# [9] = system: Cryptococcus neoformans; assay: Antifungal activity against Cryptococcus neoformans after 72 hrs by NCCLS protocol based method
# [10] = Cryptococcus neoformans, read-out: MIC
# [11] = Lodderomyces parapsilosis, read-out: MIC
# [12] = Trichophyton rubrum, read-out: MIC
MIC [1] [ng/mL],MIC [2] [ng/mL],MIC [3] [ng/mL],MIC [4] [ng/mL],MIC [5] [ng/mL],MIC [6] [ng/mL],MIC [7] [ng/mL],Structure (SMILES),other results
0.24 to 250,0.24 to 250,0.24 to 250,0.24 to 250,0.24 to 250,0.24 to 250,0.24 to 250,C#CCN(Cc1ccc(F)cc1)CC(O)(Cn1cncn1)c1ccc(F)cc1F (stereo unspecified),
0.24 to 250,0.24 to 250,0.24 to 250,0.24 to 250,0.24 to 250,0.24 to 250,0.24 to 250,C#CCN(Cc1ccc(OC)cc1)CC(O)(Cn1cncn1)c1ccc(F)cc1F (stereo unspecified),
0.24 to 250,0.24 to 250,0.24 to 250,0.24 to 250,0.24 to 250,0.24 to 250,0.24 to 250,C#CCN(Cc1ccc([N+](=O)[O-])cc1)CC(O)(Cn1cncn1)c1ccc(F)cc1F (stereo unspecified),
0.24 to 250,0.24 to 250,0.24 to 250,0.24 to 250,0.24 to 250,0.24 to 250,0.24 to 250,C#CCN(Cc1ccc(Cl)cc1)CC(O)(Cn1cncn1)c1ccc(F)cc1F (stereo unspecified),
0.24 to 250,0.24 to 250,0.24 to 250,0.24 to 250,0.24 to 250,0.24 to 250,0.24 to 250,C#CCN(Cc1ccc(Br)cc1)CC(O)(Cn1cncn1)c1ccc(F)cc1F (stereo unspecified),
0.24 to 250,0.24 to 250,0.24 to 250,0.24 to 250,0.24 to 250,0.24 to 250,0.24 to 250,C#CCN(Cc1ccccc1Cl)CC(O)(Cn1cncn1)c1ccc(F)cc1F (stereo unspecified),
0.24 to 250,0.24 to 250,0.24 to 250,0.24 to 250,0.24 to 250,0.24 to 250,0.24 to 250,C#CCN(Cc1ccc(C#N)cc1)CC(O)(Cn1cncn1)c1ccc(F)cc1F (stereo unspecified),
0.24 to 250,0.24 to 250,0.24 to 250,0.24 to 250,0.24 to 250,0.24 to 250,0.24 to 250,C#CCN(Cc1ccccc1C#N)CC(O)(Cn1cncn1)c1ccc(F)cc1F (stereo unspecified),
0.24 to 250,0.24 to 250,0.24 to 250,0.24 to 250,0.24 to 250,0.24 to 250,0.24 to 250,C#CCN(Cc1c(Cl)cccc1Cl)CC(O)(Cn1cncn1)c1ccc(F)cc1F (stereo unspecified),
0.24 to 250,0.24 to 250,0.24 to 250,0.24 to 250,0.24 to 250,0.24 to 250,0.24 to 250,C#CCN(Cc1ccccc1F)CC(O)(Cn1cncn1)c1ccc(F)cc1F (stereo unspecified),
0.24 to 250,0.24 to 250,0.24 to 250,0.24 to 250,0.24 to 250,0.24 to 250,0.24 to 250,C#CCN(Cc1cccc([N+](=O)[O-])c1)CC(O)(Cn1cncn1)c1ccc(F)cc1F (stereo unspecified),

# Continued, compound first:
Structure (SMILES),MIC [1] [ng/mL],MIC [2] [ng/mL],MIC [3] [ng/mL],MIC [4] [ng/mL],MIC [5] [ng/mL],MIC [6] [ng/mL],MIC [7] [ng/mL],other results
C#CCN(Cc1cccc(C#N)c1)CC(O)(Cn1cncn1)c1ccc(F)cc1F (stereo unspecified),0.24 to 250,0.24 to 250,0.24 to 250,0.24 to 250,0.24 to 250,0.24 to 250,0.24 to 250,
C#CCN(Cc1cccc(F)c1)CC(O)(Cn1cncn1)c1ccc(F)cc1F (stereo unspecified),0.24 to 250,0.24 to 250,0.24 to 250,0.24 to 250,0.24 to 250,0.24 to 250,0.24 to 250,
C#CCN(Cc1cccc(Cl)c1)CC(O)(Cn1cncn1)c1ccc(F)cc1F (stereo unspecified),0.24 to 250,0.24 to 250,0.24 to 250,0.24 to 250,0.24 to 250,0.24 to 250,0.24 to 250,
Cc1ccccc1-c1nnc(SCc2cn(CC(O)(Cn3cncn3)c3ccc(F)cc3F)nn2)o1 (stereo unspecified),,,,,,,,MIC80 ([7]; Candida albicans): 500 ng/mL
CCCc1ccc(-c2nnc(SCc3cn(CC(O)(Cn4cncn4)c4ccc(F)cc4F)nn3)o2)cc1 (stereo unspecified),,,,,,,,MIC80 ([7]; Candida albicans): 500 ng/mL
C#CCN(Cc1cccc(C)c1)CC(O)(Cn1cncn1)c1ccc(F)cc1F (stereo unspecified),0.24 to 250,0.24 to 250,0.24 to 250,0.24 to 250,0.24 to 250,0.24 to 250,0.24 to 250,
C#CCN(Cc1ccccc1Br)CC(O)(Cn1cncn1)c1ccc(F)cc1F (stereo unspecified),0.24 to 250,0.24 to 250,0.24 to 250,0.24 to 250,0.24 to 250,0.24 to 250,0.24 to 250,
CCN(Cc1cn(Cc2ccc(Cl)cc2)nn1)CC(O)(Cn1cncn1)c1ccc(F)cc1F (stereo unspecified),,,,,,,,"MIC [1, 10]: 3.9 to 62.5 ng/mL; MIC ([3]; Kluyveromyces marxianus, read-out: MIC): 3.9 to 62.5 ng/mL; MIC [4, 11]: 3.9 to 62.5 ng/mL; MIC [5, 12]: 3.9 to 62.5 ng/mL; MIC ([6]; Candida tropicalis, read-out: MIC): 3.9 to 62.5 ng/mL; MIC ([7]; Candida albicans, read-out: MIC): 3.9 to 62.5 ng/mL"
O=C1S/C(=C\c2ccco2)C(=O)N1CC(O)(Cn1cncn1)c1ccc(F)cc1F (stereo unspecified),,,,,,,,MIC80 [8]: 0.03 to 0.15 µM; MIC80 [9]: 0.12 µM
C#CCN(Cc1ccc(C)cc1)CC(O)(Cn1cncn1)c1ccc(F)cc1F (stereo unspecified),0.24 to 250,0.24 to 250,0.24 to 250,0.24 to 250,0.24 to 250,0.24 to 250,0.24 to 250,
C#CCN(Cc1ccccc1[N+](=O)[O-])CC(O)(Cn1cncn1)c1ccc(F)cc1F (stereo unspecified),0.24 to 250,0.24 to 250,0.24 to 250,0.24 to 250,0.24 to 250,0.24 to 250,0.24 to 250,
CCN(Cc1cn(Cc2ccc(Cl)cc2Cl)nn1)CC(O)(Cn1cncn1)c1ccc(F)cc1F (stereo unspecified),,,,,,,,"MIC [5, 12]: 3.9 ng/mL"
C#CCN(Cc1ccc(Cl)cc1Cl)CC(O)(Cn1cncn1)c1ccc(F)cc1F (stereo unspecified),0.24 to 250,0.24 to 250,0.24 to 250,0.24 to 250,0.24 to 250,0.24 to 250,0.24 to 250,
OC(Cc1cn(Cn2ncc(CC3CCCCC3)n2)nn1)(Cn1cncn1)c1ccc(F)cc1F (stereo unspecified),,,,,,,,"MIC [1, 10]: 0.15 ng/mL; MIC [4, 11]: 3 ng/mL"
CCCCCCc1cnn(Cn2cc(CC(O)(Cn3cncn3)c3ccc(F)cc3F)nn2)n1 (stereo unspecified),,,,,,,,"MIC [1, 10]: 0.15 ng/mL; MIC [4, 11]: 3 ng/mL"
C#CCN(Cc1ccccc1C)CC(O)(Cn1cncn1)c1ccc(F)cc1F (stereo unspecified),0.24 to 250,0.24 to 250,0.24 to 250,0.24 to 250,0.24 to 250,0.24 to 250,0.24 to 250,
C#CCN(Cc1ccccc1)CC(O)(Cn1cncn1)c1ccc(F)cc1F (stereo unspecified),0.24 to 250,0.24 to 250,0.24 to 250,0.24 to 250,0.24 to 250,0.24 to 250,0.24 to 250,
O=C1S/C(=C\c2ccc(Cl)cc2Cl)C(=O)N1CC(O)(Cn1cncn1)c1ccc(F)cc1F (stereo unspecified),,,,,,,,MIC80 [8]: 0.03 to 0.15 µM; MIC80 [9]: 0.12 µM
CN(CCOc1ccc(CC2SC(=O)N(CC(O)(Cn3cncn3)c3ccc(F)cc3F)C2=O)cc1)c1ccccn1 (stereo unspecified),,,,,,,,MIC80 [8]: 6.72 µM; MIC80 [9]: 13.4 µM
O=C1S/C(=C\c2ccoc2)C(=O)N1CC(O)(Cn1cncn1)c1ccc(F)cc1F (stereo unspecified),,,,,,,,MIC80 [8]: 0.03 to 0.15 µM; MIC80 [9]: 0.12 µM
C#CCN(Cc1cccc(Br)c1)CC(O)(Cn1cncn1)c1ccc(F)cc1F (stereo unspecified),0.24 to 250,0.24 to 250,0.24 to 250,0.24 to 250,0.24 to 250,0.24 to 250,0.24 to 250,
Cc1cccc(-c2cn(CC(O)(Cn3cncn3)c3ccc(F)cc3F)nn2)c1 (stereo unspecified),,,,,,,,"MIC [5, 12]: 250 ng/mL"

# Source: ChEMBL document CHEMBL4396865, “Current advances of triazole alcohols derived from fluconazole: Design, in vitro and in silico studies” (2019)
